Laboratory results: patent US20260287586A1, “METHODS OF TREATING TKI-RESISTANT AND SDH-DEFICIENT GIST” (priority 2023, published 2026)
Values joined by “and” are separate entries in the source; they are usually repeats but may differ in a detail not shown here. Identical values can stand only once. “Also recorded” adds a separate entry of the source.

How the values were obtained:
[1] = Phase 1 trial HQP1351-SJ-0003 of olverembatinib: safety (adverse events, DLT, MTD/RP2D); format: in vivo, human; settings: for Abdominal pain, treatment-emergent AE / Anemia, treatment-emergent AE / Constipation, treatment-emergent AE / Fatigue, treatment-emergent AE / Hyperuricemia, treatment-emergent AE / Increased alanine aminotransferase, treatment-emergent AE / Increased aspartate aminotransferase, treatment-emergent AE / Increased leukocyte count, treatment-emergent AE / Increased neutrophil count, treatment-emergent AE / Pyrexia, treatment-emergent AE: all patients N = 66
From the text: The dose escalation aspect of the study enrolled patients with advanced and/or metastatic GIST or other solid tumors that were refractory or had relapsed after treatment with at least one TKI.
Eligible patients were adults (≥18 years) who had advanced and/or metastatic GISTs or other solid tumors confirmed by histology and/or cytology. The definition of SDH-deficient GIST was based on pathological phenotype with negative immunohistochemical staining for SDHB. Also required for study enrollment were Eastern Cooperative Oncology Group performance status (ECOG PS)≤2; and adequate renal, hepatic, cardiac, and bone marrow function. A full list of inclusion and exclusion criteria is in the protocol. Enrollment trends, ongoing review of study data, and evolving knowledge regarding the GIST treatment paradigm informed the study sponsor's medical director's and investigators' decision to analyze the SDH-deficient GIST patient subgroup separately.
Based on encouraging initial activity and favorable tolerability (Qiu, H., et al., J. Clin. Oncol. 40, 11513 (2022)), additional patients with SDH-deficient GIST were enrolled to further explore efficacy, and patients with TKI-naïve SDH-deficient GIST and adolescent patients (aged 12-18 years old) with SDH-deficient GIST were permitted. After data from the dose-escalation part of the study were reviewed during a meeting of the principal investigators and a postmarket dose was recommended to treat CML, all adult patients received 40 mg QOD (determined RP2D dose), and adolescent patients received 20 to 40 mg QOD based on body weight. If body weight was at least 40 kg, patients received 40 mg QOD; if within 30-40 kg, 30 mg QOD; and, if within 20-30 kg, 20 mg QOD. Patients with SDH-deficient malignant paraganglioma who had failed at least one treatment and were without appropriate treatment (as judged by investigators) were also enrolled. Treatment could continue until precluded by toxicity, noncompliance, withdrawal of consent, physician decision, progressive disease, death, or closure of the study. All protocol modifications, including those increasing the number of patients and cohorts in the dose-expansion aspect, are established in the trial protocol version dated May 27, 2022.
Physical examination and adverse events (AEs) were evaluated at each follow-up visit (day −28~day −1 after signed informed consent form); on days 1, 8, 15, and 22 during cycles 1 and 2; and on days 1 and 15 in cycle 3 and all subsequent cycles, up to 30 days after the final dose. All AEs were graded according to the US National Cancer Institute (NCI) Common Terminology Criteria for Adverse Events (CTCAE; version 4.03). Clinical laboratory investigations for routine blood examinations and serum chemistry parameters were performed during every cycle (on day 1); cycles 1 and 2 (on days 8, 15, and 22); and 30 days after the last dose of treatment. Urinalysis, coagulation, cardiac troponin I/T, lipase, amylase, and electrocardiograms were done at baseline; during cycles 1 and 2 (on days 1 and 15); cycle 3, 5, 7, and 9; every 3 cycles after cycle 9 (on day 1); and 14 days after the last dose of treatment. All patients underwent tumor imaging for response assessment via computed tomography or magnetic resonance imaging at screening and every two cycles (8 weeks) until progression or discontinuation. Target and nontarget lesions were assessed per Response Evaluation Criteria in Solid Tumors version 1.1 (RECIST v1.1).
The data cutoff for this analysis was Dec. 27, 2023. The safety population included all patients who received at least one dose of olverembatinib. The SDH-deficient GIST population (prespecified subgroup) included patients in the safety population. MTD was defined as the highest dose level with no more than one dose-limiting toxicity in six patients.

[2] = system: GIST430 cell-derived xenograft; assay: Imatinib-resistant GIST430 cell-derived xenograft model; format: in vivo; settings: olverembatinib 15 mg/kg every other day for 3 weeks; lisaftoclax 50 mg/kg daily for 3 weeks; alone or combined
From the text: Therefore, selective inhibition of BCL-2, aided by TKI-mediated MCL-1 and BCL-XL inhibition, markedly augmented cleavage of caspase-3 and poly(ADP-ribose) polymerase 1 (PARP-1), thus triggering apoptosis and subsequently enhancing antitumor effects.

[3] = reported in ≥2 patients, N = 66

## Cc1ccc(C(=O)Nc2ccc(CN3CCN(C)CC3)c(C(F)(F)F)c2)cc1C#Cc1cnc2[nH]ncc2c1 [Olverembatinib, olverembatinib]
[1]; 20-50 mg QOD
  dose-limiting toxicities: No dose-limiting toxicities were reported; also recorded: No dose-limiting toxicity was observed
  maximum tolerated dose (MTD): not reached
[1]; N = 66
  dose reductions due to TRAEs: dose reductions in two patients
  patients who experienced grade ≥3 TRAEs: 13.6%
  patients who experienced treatment-related adverse events (TRAEs): 93.9%
  treatment-related serious adverse events: 7.6%
[1]; N = 66, value is N
  Anemia, treatment-related serious AE: 2 N (%)
  Coronary sclerosis, treatment-related serious AE: 1 N (%)
  Intestinal obstruction, treatment-related serious AE: 1 N (%)
  Leukemoid reaction, treatment-related serious AE: 1 N (%)
[1]; all 66 subjects, oral 20-50 mg QOD
  subjects who experienced treatment-emergent adverse events (TEAEs): 100.0%
[1]; any grade, N = 66, value is N
  Abdominal pain, treatment-related AE: 3 N (%)
  Anemia, treatment-related AE: 9 N (%)
  Constipation, treatment-related AE: 23 N (%)
  Coronary sclerosis, treatment-related AE: 1 N (%)
  Decreased neutrophil count, treatment-related AE: 3 N (%)
  Fatigue, treatment-related AE: 18 N (%)
  Hypertension, treatment-related AE: 3 N (%)
  Hyperuricemia, treatment-related AE: 12 N (%)
  Hypoalbuminemia, treatment-related AE: 10 N (%)
  Increased CRP, treatment-related AE: 11 N (%)
  Increased WBC count, treatment-related AE: 27 N (%)
  Increased alanine aminotransferase, treatment-related AE: 20 N (%)
  Increased aspartate aminotransferase, treatment-related AE: 23 N (%)
  Increased creatinine, treatment-related AE: 9 N (%)
  Increased neutrophil count, treatment-related AE: 22 N (%)
  Increased platelet count, treatment-related AE: 7 N (%)
  Intestinal obstruction, treatment-related AE: 2 N (%)
  Leukemoid reaction, treatment-related AE: 1 N (%)
  Melanocytic nevi, treatment-related AE: 15 N (%)
[1]; any grade
  Abdominal pain, treatment-emergent AE: 15 N (%) and 15 (22.7) N (%)
  Anemia, treatment-emergent AE: 31 N (%) and 31 (47.0) N (%)
  Constipation, treatment-emergent AE: 27 N (%) and 27 (40.9) N (%)
  Fatigue, treatment-emergent AE: 20 (30.3) N (%)
  Hyperuricemia, treatment-emergent AE: 31 (47.0) N (%)
  Increased alanine aminotransferase, treatment-emergent AE: 25 N (%) and 25 (37.9) N (%)
  Increased aspartate aminotransferase, treatment-emergent AE: 31 N (%) and 31 (47.0) N (%)
  Increased leukocyte count, treatment-emergent AE: 32 N (%) and 32 (48.5) N (%)
  Increased neutrophil count, treatment-emergent AE: 25 N (%) and 25 (37.9) N (%)
  Pyrexia, treatment-emergent AE: 28 N (%) and 28 (42.4) N (%)
[1]; grades 3-5, N = 66, value is N
  Abdominal pain, treatment-related AE: 1 N (%)
  Anemia, treatment-related AE: 1 N (%)
  Constipation, treatment-related AE: 0 N (%)
  Coronary sclerosis, treatment-related AE: 1 N (%)
  Decreased neutrophil count, treatment-related AE: 2 N (%)
  Fatigue, treatment-related AE: 1 N (%)
  Hypertension, treatment-related AE: 1 N (%)
  Hyperuricemia, treatment-related AE: 0 N (%)
  Hypoalbuminemia, treatment-related AE: 0 N (%)
  Increased CRP, treatment-related AE: 0 N (%)
  Increased WBC count, treatment-related AE: 0 N (%)
  Increased alanine aminotransferase, treatment-related AE: 1 N (%)
  Increased aspartate aminotransferase, treatment-related AE: 1 N (%)
  Increased creatinine, treatment-related AE: 0 N (%)
  Increased neutrophil count, treatment-related AE: 0 N (%)
  Increased platelet count, treatment-related AE: 0 N (%)
  Intestinal obstruction, treatment-related AE: 1 N (%)
  Leukemoid reaction, treatment-related AE: 1 N (%)
  Melanocytic nevi, treatment-related AE: 0 N (%)
[1]; grades 3-5
  Abdominal pain, treatment-emergent AE: 1 (1.5) N (%)
  Anemia, treatment-emergent AE: 4 (6.1) N (%)
  Constipation, treatment-emergent AE: 0 N (%)
  Fatigue, treatment-emergent AE: 1 (1.5) N (%)
  Hyperuricemia, treatment-emergent AE: 1 (1.5) N (%)
  Increased alanine aminotransferase, treatment-emergent AE: 2 (3.0) N (%)
  Increased aspartate aminotransferase, treatment-emergent AE: 2 (3.0) N (%)
  Increased leukocyte count, treatment-emergent AE: 0 N (%)
  Increased neutrophil count, treatment-emergent AE: 0 N (%)
  Pyrexia, treatment-emergent AE: 0 N (%)
[1]; of 66 patients
  patients who required treatment interruption: 31.8%
[1]; on alternate days (QOD)
  RP2D: 40 mg
[1]; patients in the phase 1 trial
  tolerability: well tolerated
[1]; [3]
  Anemia, serious treatment-emergent AE: 2 (3.0) N (%)
  Intestinal obstruction, serious treatment-emergent AE: 5 (7.6) N (%)
[2]
  Tumor growth inhibition (TGI) rate: 57.6%
